Reference: ChEMBL document CHEMBL2407069, “Pyrimidone-based series of glucokinase activators with alternative donor-acceptor motif” (Bioorg Med Chem Lett, 2013)

What was measured:
[1] = Lipophilicity, log D of the compound by shake-flask method; type: physicochemical; settings: octanol/water
[2] = Intrinsic clearance in human liver microsomes; type: ADME, Microsome; settings: read-out: CLH
[3] = Intrinsic clearance in rat liver microsomes; type: ADME, Microsome; settings: read-out: CLH
[4] = Oral bioavailability in Wistar-Han rat at 5 mg/kg; type: ADME, organism-based; settings: in vivo
[5] = Volume of distribution at steady state in Wistar-Han rat at 1 mg/kg, iv; type: ADME, organism-based; set-up: dose 1 mg/kg, route intravenous; settings: in vivo, read-out: Vdss
[6] = AUC in Wistar-Han rat at 5 mg/kg, po; type: ADME, organism-based; set-up: dose 5 mg/kg, route oral; settings: plasma
[7] = Clearance in Wistar-Han rat at 1 mg/kg, iv; type: ADME, organism-based; set-up: dose 1 mg/kg, route intravenous; settings: in vivo
[8] = Cmax in Wistar-Han rat at 5 mg/kg, po; type: ADME, organism-based; set-up: dose 5 mg/kg, route oral; settings: in vivo
[9] = Half life in Wistar-Han rat at 1 mg/kg, iv; type: ADME, organism-based; set-up: dose 1 mg/kg, route intravenous; settings: in vivo

SMILES | logD [1] | CLint scaled [2] [mL/min/kg] | CLint scaled [3] [mL/min/kg] | bioavailability [4] [%] | Vd [5] [L/kg] | AUC [6] [ng·h/mL] | clearance [7] [mL/min/kg] | Cmax [8] [ng/mL] | half-life [9] [h]
CNS(=O)(=O)c1ccc(Oc2cc(OC(C)C)cc(-c3nccc(=O)[nH]3)c2)cc1 | 2.63 | < 8 | – | – | – | – | – | – | –
CNS(=O)(=O)c1ccc(Oc2cc(O[C@@H](C)CO)cc(-c3ncc(C)c(=O)[nH]3)c2)cc1 | 2.01 | < 8 | < 25.4 | – | – | – | – | – | –
COC[C@H](C)Oc1cc(Oc2cnc(C(=O)N(C)C)nc2)cc(-c2nccc(=O)[nH]2)c1 | 0.43 | < 8 | 38 | – | – | – | – | – | –
CC(C)Oc1cc(Oc2ccc(S(C)(=O)=O)cc2)cc(-c2cccc(=O)[nH]2)c1 | 2.82 | < 8 | 349 | – | – | – | – | – | –
CN(C)C(=O)c1ncc(Oc2cc(OC3CCCC3)cc(-c3nccc(=O)[nH]3)c2)cn1 | 1.74 | < 8 | 106 | – | – | – | – | – | –
Cc1ccc(NC(=O)c2cc(Oc3ccc(S(C)(=O)=O)cc3)cc(OC(C)C)c2)nc1 | 4.05 | 17 | 97 | – | – | – | – | – | –
COc1cnc(-c2cc(Oc3ccc(S(C)(=O)=O)cc3)cc(OC(C)C)c2)[nH]c1=O | 2.21 | < 8 | < 25.4 | – | – | – | – | – | –
CCS(=O)(=O)c1ccc(Oc2cc(O[C@@H](C)CO)cc(-c3nccc(=O)[nH]3)c2)cc1 | 1.42 | < 8 | < 25.4 | 6 | 0.746 | 253 | 19 | 74 | 1.8
CC(C)Oc1cc(Oc2cnc(C(=O)N(C)C)cn2)cc(-c2nccc(=O)[nH]2)c1 | 1.34 | < 8 | 47 | – | – | – | – | – | –
COC[C@H](C)Oc1cc(Oc2cnc(C(=O)N(C)C)cn2)cc(-c2nccc(=O)[nH]2)c1 | 0.81 | < 8 | < 25.4 | – | – | – | – | – | –
CCc1cnc(-c2cc(Oc3ccc(S(C)(=O)=O)cc3)cc(OC(C)C)c2)[nH]c1=O | 3.11 | < 8 | 171 | – | – | – | – | – | –
Cc1cnc(-c2cc(Oc3ccc(S(C)(=O)=O)cc3)cc(OC(C)C)c2)[nH]c1=O | 2.68 | < 8 | 189 | 2 | 0.746 | 141 | 13 | 31 | 5.3
CC(C)Oc1cc(Oc2ccc(S(C)(=O)=O)cc2)cc(-c2nccc(=O)[nH]2)c1 | 2.14 | < 9.8 | 105 | 29 | 6.41 | 703 | 61 | 150 | 1.5
Cc1cnc(-c2cc(Oc3cnc(C(=O)N(C)C)nc3)cc(OC(C)C)c2)[nH]c1=O | 1.48 | < 8 | < 25.4 | – | – | – | – | – | –
CC(C)Oc1cc(Oc2cnc(C(=O)N(C)C)c(F)c2)cc(-c2nccc(=O)[nH]2)c1 | 1.54 | 8.3 | 102 | – | – | – | – | – | –
CC(C)Oc1cc(Oc2cnc(C(=O)N(C)C)nc2)cc(-c2nccc(=O)[nH]2)c1 | 0.97 | < 8 | < 25.4 | – | – | – | – | – | –
CCC(CC)Oc1cc(Oc2cnc(C(=O)N(C)C)nc2)cc(-c2nccc(=O)[nH]2)c1 | 1.91 | 22.4 | 91 | 32 | 5.79 | 580 | 44 | 412 | 6
Cc1cnc(-c2cc(Oc3ccc(S(=O)(=O)N(C)C)cc3)cc(O[C@@H](C)CO)c2)[nH]c1=O | 2.26 | 12 | – | – | – | – | – | – | –
C[C@@H](CO)Oc1cc(Oc2cnc(C(=O)N(C)C)nc2)cc(-c2nccc(=O)[nH]2)c1 | -0.02 | < 8 | 26 | – | – | – | – | – | –
CC(C)Oc1cc(Oc2ccc(S(C)(=O)=O)cc2)cc(-c2cncc(=O)[nH]2)c1 | 2.27 | 11 | 61 | – | – | – | – | – | –
CC(C)Oc1cc(Oc2ccc(S(C)(=O)=O)cc2)cc(-c2ncc(Cl)c(=O)[nH]2)c1 | 2.04 | < 8 | < 25.4 | – | – | – | – | – | –
Cc1cc(=O)[nH]c(-c2cc(Oc3ccc(S(C)(=O)=O)cc3)cc(OC(C)C)c2)n1 | 2.43 | < 8 | 96 | – | – | – | – | – | –
